Changes are numbered by the printed parent chain.
How the values were obtained:
[1] = molecular target: T1, wild-type Androgen Receptor (AR-wt) (Homo sapiens, UniProt P10275); test: LNCaP-AR-wt AG: ARE luciferase reporter assay, agonist mode; type: cell-based; settings: maximum % stimulation (agonist response), % of 1 μM R-1881 max
T1 construct: expressed in transfected cells; host or cells: LNCaP AR (cs) cells with ARE firefly luciferase lentiviral construct
T1 sequence (P10275 1-920): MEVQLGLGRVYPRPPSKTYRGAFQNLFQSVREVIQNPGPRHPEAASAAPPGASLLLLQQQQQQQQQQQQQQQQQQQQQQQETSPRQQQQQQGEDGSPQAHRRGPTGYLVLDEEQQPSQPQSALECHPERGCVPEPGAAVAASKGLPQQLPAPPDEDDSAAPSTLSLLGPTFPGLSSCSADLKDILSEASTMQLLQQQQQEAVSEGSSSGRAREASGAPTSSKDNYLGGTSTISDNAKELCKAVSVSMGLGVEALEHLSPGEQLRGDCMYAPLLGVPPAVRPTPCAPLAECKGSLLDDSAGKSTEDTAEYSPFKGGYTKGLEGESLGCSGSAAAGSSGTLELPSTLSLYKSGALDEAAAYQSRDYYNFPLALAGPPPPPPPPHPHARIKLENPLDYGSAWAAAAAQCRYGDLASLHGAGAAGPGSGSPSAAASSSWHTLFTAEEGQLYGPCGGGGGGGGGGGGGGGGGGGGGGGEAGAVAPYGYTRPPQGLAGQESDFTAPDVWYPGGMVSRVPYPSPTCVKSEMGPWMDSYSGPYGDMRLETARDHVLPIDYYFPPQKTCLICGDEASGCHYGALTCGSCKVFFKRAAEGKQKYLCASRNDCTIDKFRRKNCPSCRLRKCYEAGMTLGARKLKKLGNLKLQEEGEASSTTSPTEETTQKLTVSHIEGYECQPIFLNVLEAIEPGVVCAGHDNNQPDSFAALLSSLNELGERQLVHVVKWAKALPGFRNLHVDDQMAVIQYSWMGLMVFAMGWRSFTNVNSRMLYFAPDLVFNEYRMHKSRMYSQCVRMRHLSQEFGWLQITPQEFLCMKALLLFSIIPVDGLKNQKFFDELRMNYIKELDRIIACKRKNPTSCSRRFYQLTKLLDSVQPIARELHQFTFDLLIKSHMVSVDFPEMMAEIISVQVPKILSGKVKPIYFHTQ
Experimental: (§1) A stable pooled-population cell line was generated using puromycin (Life Technologies) selection at 1:10,000 v/v. The protocol below was used for both cell lines and for testing of the compounds of Formula (I) of the present invention.
(§2) LNCaP cells were grown to about 80% confluence, media removed and cells rinsed in Hank's balanced salt solution prior to separation from the plate with 0.05% Trypsin EDTA. Cells were lifted and trypsin negated in complete CSS (charcoal stripped serum) culture media. […] Agonist challenge was at 400 pM for WT assay and 600 pM for F876L assay. Plates containing cells and compounds herein were incubated for a further 20-24 hours at 37° C., 5% CO2 before addition of 40 μL/well of Steady-Glo Luciferase Assay System Reagent (Promega# E2520). After 1 h, plates were read for luminescence on a BMG Pherastar.
(§3) EC/IC50 calculations were achieved utilizing calculated RLU data and data fitting macros. Data were fit using least-squares methods to the following formula: […]
(§4) As used herein: pIC50 is defined as—Log10(IC50 expressed in [Molar]). pEC50 is defined as—Log10(EC50 expressed in [Molar]). […] LNCaP-AR-wt ANT refers to the reporter assay using LNCaP cells stably transfected with the Androgen Response Element Firefly Luciferase lentiviral construct and wild-type Androgen Receptor (AR-wt) in Antagonist mode. LNCaP-AR-wt AG refers to the reporter assay using LNCaP cells stably transfected with the Androgen Response Element Firefly Luciferase lentiviral construct and wild-type Androgen Receptor (AR-wt) in Agonist mode. LNCaP-AR-F876L ANT refers to the reporter assay using LNCaP cells stably transfected with the Androgen Response Element Firefly Luciferase lentiviral construct and F876L mutant Androgen Receptor (AR-F876L) in Antagonist mode. LNCaP-AR-F876L AG refers to the reporter assay using LNCaP cells stably transfected with the Androgen Response Element Firefly Luciferase lentiviral construct and F876L mutant Androgen Receptor (AR-F876L) in Agonist mode.

[2] = molecular target: T2, F876L mutant Androgen Receptor (AR-F876L) (Homo sapiens, UniProt P10275, F877L); test: LNCaP-AR-F876L AG: ARE luciferase reporter assay, agonist mode; type: cell-based; settings: maximum % stimulation (agonist response), % of 1 μM R-1881 max
T2 construct: expressed in transfected cells; host or cells: LNCaP F876L cells with ARE firefly luciferase lentiviral construct
T2 sequence (P10275 1-920 F877L): T1 sequence (P10275 1-920) with F877L
Experimental: as §1, §2, §3, §4

SMILES | LNCaP-AR-wt AG MAX % Stim [1] | LNCaP-AR-F876L AG MAX % Stim [2]
Cc1cc(N2C(=O)C3(CCC3)N(c3ccc(C(=O)NC4CCOCC4)c(F)c3)C2=S)cnc1C#N [Cpd 2, 4-[6-(6-cyano-5-methyl-3-pyridyl)-5-oxo-7-thioxo-6,8-diazaspiro[3.4]octan-8-yl]-2-fluoro-N-tetrahydropyran-4-yl-benzamide] | 0.8% | −0.4%
N#Cc1ncc(N2C(=O)C3(CCC3)N(c3ccc4ccncc4c3)C2=S)cc1C(F)(F)F [Cpd 7, 5-[8-(7-isoquinolyl)-5-oxo-7-thioxo-6,8-diazaspiro[3.4]octan-6-yl]-3-(trifluoromethyl)pyridine-2-carbonitrile] | −0.2% | 0.0%
N#Cc1ncc(N2C(=O)C3(CCC3)N(c3cccnc3)C2=S)cc1C(F)(F)F [Cpd 9, 5-[5-oxo-8-(3-pyridyl)-7-thioxo-6,8-diazaspiro[3.4]octan-6-yl]-3-(trifluoromethyl)pyridine-2-carbonitrile] | −0.2% | 0.0%
CNC(=O)c1ccc(N2C(=S)N(c3cnc(C#N)c(C)c3)C(=O)C2(C)C)cc1F [Cpd 12, 4-[3-(6-cyano-5-methyl-3-pyridyl)-5,5-dimethyl-4-oxo-2-thioxo-imidazolidin-1-yl]-2-fluoro-N-methyl-benzamide] | 0.9% | −0.3%
CC(C)(O)CNC(=O)c1ccc(N2C(=S)N(c3cnc(C#N)c(C(F)(F)F)c3)C(=O)C23CCC3)cc1F [Cpd 17, 4-[6-[6-cyano-5-(trifluoromethyl)-3-pyridyl]-5-oxo-7-thioxo-6,8-diazaspiro[3.4]octan-8-yl]-2-fluoro-N-(2-hydroxy-2-methyl-propyl)benzamide] | −0.1% | 0.1%
N#Cc1ncc(N2C(=O)C3(CCC3)N(c3ccc4ccccc4c3)C2=S)cc1C(F)(F)F [Cpd 18, 5-[8-(2-naphthyl)-5-oxo-7-thioxo-6,8-diazaspiro[3.4]octan-6-yl]-3-(trifluoromethyl)pyridine-2-carbonitrile] | −0.2% | 0.0%
CC(C)CCNC(=O)c1ccc(N2C(=S)N(c3cnc(C#N)c(C(F)(F)F)c3)C(=O)C23CCC3)cc1F [Cpd 27, 4-[6-[6-cyano-5-(trifluoromethyl)-3-pyridyl]-5-oxo-7-thioxo-6,8-diazaspiro[3.4]octan-8-yl]-2-fluoro-N-isopentyl-benzamide] | 0.4% | 0.2%
CN1CCC(Oc2ccc(N3C(=S)N(c4cnc(C#N)c(C(F)(F)F)c4)C(=O)C34CCC4)cc2F)CC1 [Cpd 28, 5-[8-[3-fluoro-4-[(1-methyl-4-piperidyl)oxy]phenyl]-5-oxo-7-thioxo-6,8-diazaspiro[3.4]octan-6-yl]-3-(trifluoromethyl)pyridine-2-carbonitrile] | −0.1% | 0.0%
N#Cc1ncc(N2C(=O)C3(CCC3)N(c3ccc(C(=O)NCc4ccccc4Cl)c(F)c3)C2=S)cc1C(F)(F)F [Cpd 31, N-[(2-chlorophenyl)methyl]-4-[6-[6-cyano-5-(trifluoromethyl)-3-pyridyl]-5-oxo-7-thioxo-6,8-diazaspiro[3.4]octan-8-yl]-2-fluoro-benzamide] | 0.2% | 0.3%
N#Cc1ncc(N2C(=O)C3(CCC3)N(c3cccc4ccccc34)C2=S)cc1C(F)(F)F [Cpd 34, 5-[8-(1-naphthyl)-5-oxo-7-thioxo-6,8-diazaspiro[3.4]octan-6-yl]-3-(trifluoromethyl)pyridine-2-carbonitrile] | −0.1% | 0.2%
N#Cc1ncc(N2C(=O)C3(CCC3)N(c3ccc(C(=O)NCc4ccccc4)c(F)c3)C2=S)cc1C(F)(F)F [Cpd 36, N-benzyl-4-[6-[6-cyano-5-(trifluoromethyl)-3-pyridyl]-5-oxo-7-thioxo-6,8-diazaspiro[3.4]octan-8-yl]-2-fluoro-benzamide] | 0.9% | 0.3%
N#Cc1ncc(N2C(=O)C3(CCC3)N(c3ccc(C(=O)NCc4ccccn4)c(F)c3)C2=S)cc1C(F)(F)F [Cpd 44, 4-[6-[6-cyano-5-(trifluoromethyl)-3-pyridyl]-5-oxo-7-thioxo-6,8-diazaspiro[3.4]octan-8-yl]-2-fluoro-N-(2-pyridylmethyl)benzamide] | −0.2% | 0.0%
COCCNC(=O)c1ccc(N2C(=S)N(c3cnc(C#N)c(C(F)(F)F)c3)C(=O)C23CCC3)cc1F [Cpd 46, 4-[6-[6-cyano-5-(trifluoromethyl)-3-pyridyl]-5-oxo-7-thioxo-6,8-diazaspiro[3.4]octan-8-yl]-2-fluoro-N-(2-methoxyethyl)benzamide] | −0.1% | 0.2%
N#Cc1ncc(N2C(=O)C3(CCC3)N(c3ccc(OC4CCN(CCO)CC4)cc3)C2=S)cc1C(F)(F)F [Cpd 51, 5-[8-[4-[[1-(2-hydroxyethyl)-4-piperidyl]oxy]phenyl]-5-oxo-7-thioxo-6,8-diazaspiro[3.4]octan-6-yl]-3-(trifluoromethyl)pyridine-2-carbonitrile] | 0.8% | 0.2%
N#Cc1ncc(N2C(=O)C3(CCC3)N(c3ccc(OCCCN4CCCC4)c(F)c3)C2=S)cc1C(F)(F)F [Cpd 55, 5-[8-[3-fluoro-4-(3-pyrrolidin-1-ylpropoxy)phenyl]-5-oxo-7-thioxo-6,8-diazaspiro[3.4]octan-6-yl]-3-(trifluoromethyl)pyridine-2-carbonitrile] | 0.7% | 0.6%

Reference: US20190209539A1, “THIOHYDANTOIN ANDROGEN RECEPTOR ANTAGONISTS FOR THE TREATMENT OF CANCER” (Janssen Pharmaceutica NV, priority 2016, published 2019)
